Test results from patent publication US20050265999A1, “Modulation of 5-HT2 receptors as a treatment for cardiovascular diseases” (Myogen, Inc., priority 2003, published 2005).

Key:
[1] = tested on: neonatal rat ventricular myocytes (NRVM); assay: Total cellular protein (Coomassie dye-binding) in NRVM; format: cell-based; conditions: NRVM stimulated with compound alone
Experimental: NRVM culture. For preparations of neonatal rat ventricular myocytes (NRVMs), hearts were removed from 10-20 newborn (1-2 days old) Sprague-Dawley rats. Isolated ventricles were pooled, minced and dispersed by three 20-min incubations at 37° C. in Ads buffer (116 mM NaCl, 20 mM HEPES, 10 mM NaH2PO4, 5.5 mM glucose, 5 mM KCl, 0.8 mM MgSO4, pH 7.4) containing collagenase Type II (65 units/ml, Worthington) and pancreatin (0.6 mg/ml, GibcoBRL). Dispersed cells were applied to a discontinuous gradient of 40.5% and 58.5% (v/v) Percoll (Amersham Biosciences), centrifuged, and myocytes collected from the interface layer. […]
Hypertrophy and toxicity assays. Primary hypertrophy endpoints for NRVM included quantitation of: ANF secretion, total cellular protein and cell volume. ANF in media supernatants was quantitated by competitive ELISA using a monoclonal anti-ANF antibody (Biodesign) and a biotinylated ANF peptide (Phoenix Peptide). Total cellular protein was quantitated by standard Coomassie dye-binding assay; cells were lysed in protein assay reagent (BioRad) and absorbance at A595 was measured after 1 hour. […] After recovery by centrifugation, cell pellets were washed in PBS, resuspended in 10 ml IsoFlow electrolyte solution (Beckman-Coulter) and analyzed with a Z2 Coulter Particle Counter and Size Analyzer (Beckman-Coulter). […]

[2] = tested on: MCIP1 exon 4 promoter luciferase reporter; assay: High throughput MCIP1-luciferase reporter screen in H9c2 muscle cells; format: cell-based, rat; conditions: screen of 20,000 compounds
From the text: A high throughput screen for small molecules that enhance MCIP1 expression in cardiac myocytes. The inventors set out to perform a high throughput screen of a combinatorial small molecule library for compounds capable of increasing MCIP1 expression in cultured H9c2 muscle cells. Toward that end, the inventors used a luciferase reporter gene controlled by the region upstream of exon 4 of the human MCIP1 gene (−874 to +30). This genomic region contains 15 NFAT binding sites and confers calcineurin responsiveness to MCIP1. Transcripts initiated from exon 4 encode a MCIP1 protein with a Mr=28 kD.

5-HT1 = assay: Radioligand receptor binding assay
Experimental: (§1) Receptor binding assays. Receptor binding assays were performed by MDS Pharma services. Assays included: Adenosine A1 (cat# 200510), Adenosine A2A (cat# 200610), Adenosine A3 (cat# 200720), Adrenergic alpha 1 (cat# 203500), Imidazoline 12 central (cat# 241000), Imidazoline I2 peripheral (cat# 241100), Inositol triphosphate (cat# 242500), Phorbol Ester (cat# 264500), 5-HT 2B (cat# 271700), and 5-HT 4 (cat# 272000).
(§2) • Summary of radioligand binding assays for 11 receptors. Data represent % inhibition of ligand binding in the presence of 10 μM 18264 (n=2).
(§3) • Summary of radioligand binding assays for three receptors. Data represent % inhibition of ligand binding in the presence of 10 μM 20068 (n=2).

[3] = tested on: primary rat neonatal cardiomyocytes; assay: Immunofluorescence / morphology of cardiomyocyte hypertrophy in NRVM; format: cell-based; conditions: 1 μM, 48 h
Experimental: (§4) NRVM culture. For preparations of neonatal rat ventricular myocytes (NRVMs), hearts were removed from 10-20 newborn (1-2 days old) Sprague-Dawley rats. Isolated ventricles were pooled, minced and dispersed by three 20-min incubations at 37° C. in Ads buffer (116 mM NaCl, 20 mM HEPES, 10 mM NaH2PO4, 5.5 mM glucose, 5 mM KCl, 0.8 mM MgSO4, pH 7.4) containing collagenase Type II (65 units/ml, Worthington) and pancreatin (0.6 mg/ml, GibcoBRL). Dispersed cells were applied to a discontinuous gradient of 40.5% and 58.5% (v/v) Percoll (Amersham Biosciences), centrifuged, and myocytes collected from the interface layer. Myocyte preparations were pre-plated in Dulbecco's modified Eagle's medium (DMEM, Cellgro), supplemented with 10% (v/v) fetal bovine serum (FBS, HyClone), 4 mM L-glutamine and 1% penicillin/streptomycin for 1 hour at 37° C. to reduce fibroblast contamination, then plated at a density of 2.5×10^5 cells per well on 6-well tissue culture plates (or 10,000 cells/well on 96-well tissue culture plates) coated with a 0.2% (w/v) gelatin solution. After 24 hours in culture, myocyte preparations were transferred to serum-free maintenance medium (DMEM supplemented with 0.1% (v/v) Nutridoma (Roche), L-glutamine and penicillin/streptomycin). Where indicated, NRVM were treated with test compounds for a period of 48 h. […]

5-HT2B = target: T1, 5-HT2B (Homo sapiens, UniProt P41595); assay: Radioligand receptor binding assay (MDS Pharma); conditions: 10 μM compound, n=2
T1 construct: purchased MDS Pharma services 271700
Experimental: as §1, §2, §3

5-HT2C = target: T2, 5-HT2C (Homo sapiens, UniProt P28335); assay: Radioligand receptor binding assay; conditions: 10 μM compound, n=2
T2 sequence (P28335 33-458): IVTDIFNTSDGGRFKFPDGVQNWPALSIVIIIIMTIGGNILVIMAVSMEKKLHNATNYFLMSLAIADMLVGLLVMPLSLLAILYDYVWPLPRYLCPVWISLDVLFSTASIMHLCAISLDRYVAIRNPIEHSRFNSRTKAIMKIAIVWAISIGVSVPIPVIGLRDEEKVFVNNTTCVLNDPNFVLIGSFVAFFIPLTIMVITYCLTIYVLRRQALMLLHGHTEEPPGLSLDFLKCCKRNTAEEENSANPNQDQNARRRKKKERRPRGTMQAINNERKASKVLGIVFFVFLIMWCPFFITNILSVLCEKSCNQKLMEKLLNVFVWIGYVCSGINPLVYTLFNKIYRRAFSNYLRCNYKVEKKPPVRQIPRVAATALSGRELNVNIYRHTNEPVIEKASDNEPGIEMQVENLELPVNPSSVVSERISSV

Adrenergic alpha 1 = assay: Radioligand receptor binding assay (MDS Pharma); conditions: 10 μM compound, n=2
Experimental: as §1, §2

[4] = tested on: Imidazoline I2, peripheral; assay: Radioligand receptor binding assay (MDS Pharma); conditions: 10 μM compound, n=2
Experimental: as §1, §2

[5] = target: T3, Inositol Triphosphate IP3 (Rattus norvegicus, UniProt P29994); assay: Radioligand receptor binding assay (MDS Pharma); conditions: 10 μM compound, n=2
T3 construct: purchased MDS Pharma services 242500
Experimental: as §1, §2

Imidazoline I2, central = assay: Radioligand receptor binding assay (MDS Pharma); conditions: 10 μM compound, n=2
Experimental: as §1, §2

5-HT4 = target: T4, 5-HT4 (Cavia porcellus, UniProt O70528); assay: Radioligand receptor binding assay (MDS Pharma)
T4 construct: purchased MDS Pharma services 272000
Experimental: as §1, §2

Adenosine A2A = target: T5, Adenosine A2A (Homo sapiens, UniProt P29274); assay: Radioligand receptor binding assay (MDS Pharma); conditions: 10 μM compound, n=2
T5 construct: purchased MDS Pharma services 200610
Experimental: as §1, §2

[6] = tested on: neonatal rat ventricular myocytes (NRVM); assay: ANF secretion by competitive ELISA in NRVM; format: cell-based; conditions: NRVM stimulated with compound alone
Experimental: as §4, with “solution.” for “solution. After 24 hours in culture, myocyte preparations were transferred to serum-free maintenance medium (DMEM supplemented with 0.1% (v/v) Nutridoma (Roche), L-glutamine and penicillin/streptomycin). Where indicated, NRVM were treated with test compounds for a period of 48 h.”
Hypertrophy and toxicity assays. Primary hypertrophy endpoints for NRVM included quantitation of: ANF secretion, total cellular protein and cell volume. ANF in media supernatants was quantitated by competitive ELISA using a monoclonal anti-ANF antibody (Biodesign) and a biotinylated ANF peptide (Phoenix Peptide). Total cellular protein was quantitated by standard Coomassie dye-binding assay; cells were lysed in protein assay reagent (BioRad) and absorbance at A595 was measured after 1 hour. […] After recovery by centrifugation, cell pellets were washed in PBS, resuspended in 10 ml IsoFlow electrolyte solution (Beckman-Coulter) and analyzed with a Z2 Coulter Particle Counter and Size Analyzer (Beckman-Coulter). Cytotoxicity was quantitated by measuring release of adenylate kinase (AK) from cultured NRVM into culture medium (ToxiLight kit, Cambrex).

T4 sequence (O70528 whole entry): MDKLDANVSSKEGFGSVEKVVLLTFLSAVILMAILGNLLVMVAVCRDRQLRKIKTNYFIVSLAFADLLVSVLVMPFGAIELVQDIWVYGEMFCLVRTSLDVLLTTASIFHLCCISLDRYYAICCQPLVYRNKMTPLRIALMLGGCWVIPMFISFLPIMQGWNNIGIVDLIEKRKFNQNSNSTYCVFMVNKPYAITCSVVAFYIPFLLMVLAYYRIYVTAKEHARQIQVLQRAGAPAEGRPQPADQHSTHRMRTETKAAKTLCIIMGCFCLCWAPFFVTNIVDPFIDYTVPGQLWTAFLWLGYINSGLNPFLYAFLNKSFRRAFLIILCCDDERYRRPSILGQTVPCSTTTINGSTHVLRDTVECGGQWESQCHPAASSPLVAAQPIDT
T5 sequence (P29274 whole entry): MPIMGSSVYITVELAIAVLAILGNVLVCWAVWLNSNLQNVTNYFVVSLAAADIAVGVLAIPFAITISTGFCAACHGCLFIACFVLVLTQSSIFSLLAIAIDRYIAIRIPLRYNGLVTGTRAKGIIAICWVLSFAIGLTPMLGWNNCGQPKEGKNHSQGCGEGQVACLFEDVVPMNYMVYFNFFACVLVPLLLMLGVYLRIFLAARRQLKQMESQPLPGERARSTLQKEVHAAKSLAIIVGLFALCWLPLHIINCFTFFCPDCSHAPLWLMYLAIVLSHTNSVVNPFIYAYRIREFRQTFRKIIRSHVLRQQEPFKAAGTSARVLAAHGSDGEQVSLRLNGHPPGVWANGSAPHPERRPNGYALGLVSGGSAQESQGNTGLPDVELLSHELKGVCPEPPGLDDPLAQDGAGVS
T3 sequence (P29994 whole entry): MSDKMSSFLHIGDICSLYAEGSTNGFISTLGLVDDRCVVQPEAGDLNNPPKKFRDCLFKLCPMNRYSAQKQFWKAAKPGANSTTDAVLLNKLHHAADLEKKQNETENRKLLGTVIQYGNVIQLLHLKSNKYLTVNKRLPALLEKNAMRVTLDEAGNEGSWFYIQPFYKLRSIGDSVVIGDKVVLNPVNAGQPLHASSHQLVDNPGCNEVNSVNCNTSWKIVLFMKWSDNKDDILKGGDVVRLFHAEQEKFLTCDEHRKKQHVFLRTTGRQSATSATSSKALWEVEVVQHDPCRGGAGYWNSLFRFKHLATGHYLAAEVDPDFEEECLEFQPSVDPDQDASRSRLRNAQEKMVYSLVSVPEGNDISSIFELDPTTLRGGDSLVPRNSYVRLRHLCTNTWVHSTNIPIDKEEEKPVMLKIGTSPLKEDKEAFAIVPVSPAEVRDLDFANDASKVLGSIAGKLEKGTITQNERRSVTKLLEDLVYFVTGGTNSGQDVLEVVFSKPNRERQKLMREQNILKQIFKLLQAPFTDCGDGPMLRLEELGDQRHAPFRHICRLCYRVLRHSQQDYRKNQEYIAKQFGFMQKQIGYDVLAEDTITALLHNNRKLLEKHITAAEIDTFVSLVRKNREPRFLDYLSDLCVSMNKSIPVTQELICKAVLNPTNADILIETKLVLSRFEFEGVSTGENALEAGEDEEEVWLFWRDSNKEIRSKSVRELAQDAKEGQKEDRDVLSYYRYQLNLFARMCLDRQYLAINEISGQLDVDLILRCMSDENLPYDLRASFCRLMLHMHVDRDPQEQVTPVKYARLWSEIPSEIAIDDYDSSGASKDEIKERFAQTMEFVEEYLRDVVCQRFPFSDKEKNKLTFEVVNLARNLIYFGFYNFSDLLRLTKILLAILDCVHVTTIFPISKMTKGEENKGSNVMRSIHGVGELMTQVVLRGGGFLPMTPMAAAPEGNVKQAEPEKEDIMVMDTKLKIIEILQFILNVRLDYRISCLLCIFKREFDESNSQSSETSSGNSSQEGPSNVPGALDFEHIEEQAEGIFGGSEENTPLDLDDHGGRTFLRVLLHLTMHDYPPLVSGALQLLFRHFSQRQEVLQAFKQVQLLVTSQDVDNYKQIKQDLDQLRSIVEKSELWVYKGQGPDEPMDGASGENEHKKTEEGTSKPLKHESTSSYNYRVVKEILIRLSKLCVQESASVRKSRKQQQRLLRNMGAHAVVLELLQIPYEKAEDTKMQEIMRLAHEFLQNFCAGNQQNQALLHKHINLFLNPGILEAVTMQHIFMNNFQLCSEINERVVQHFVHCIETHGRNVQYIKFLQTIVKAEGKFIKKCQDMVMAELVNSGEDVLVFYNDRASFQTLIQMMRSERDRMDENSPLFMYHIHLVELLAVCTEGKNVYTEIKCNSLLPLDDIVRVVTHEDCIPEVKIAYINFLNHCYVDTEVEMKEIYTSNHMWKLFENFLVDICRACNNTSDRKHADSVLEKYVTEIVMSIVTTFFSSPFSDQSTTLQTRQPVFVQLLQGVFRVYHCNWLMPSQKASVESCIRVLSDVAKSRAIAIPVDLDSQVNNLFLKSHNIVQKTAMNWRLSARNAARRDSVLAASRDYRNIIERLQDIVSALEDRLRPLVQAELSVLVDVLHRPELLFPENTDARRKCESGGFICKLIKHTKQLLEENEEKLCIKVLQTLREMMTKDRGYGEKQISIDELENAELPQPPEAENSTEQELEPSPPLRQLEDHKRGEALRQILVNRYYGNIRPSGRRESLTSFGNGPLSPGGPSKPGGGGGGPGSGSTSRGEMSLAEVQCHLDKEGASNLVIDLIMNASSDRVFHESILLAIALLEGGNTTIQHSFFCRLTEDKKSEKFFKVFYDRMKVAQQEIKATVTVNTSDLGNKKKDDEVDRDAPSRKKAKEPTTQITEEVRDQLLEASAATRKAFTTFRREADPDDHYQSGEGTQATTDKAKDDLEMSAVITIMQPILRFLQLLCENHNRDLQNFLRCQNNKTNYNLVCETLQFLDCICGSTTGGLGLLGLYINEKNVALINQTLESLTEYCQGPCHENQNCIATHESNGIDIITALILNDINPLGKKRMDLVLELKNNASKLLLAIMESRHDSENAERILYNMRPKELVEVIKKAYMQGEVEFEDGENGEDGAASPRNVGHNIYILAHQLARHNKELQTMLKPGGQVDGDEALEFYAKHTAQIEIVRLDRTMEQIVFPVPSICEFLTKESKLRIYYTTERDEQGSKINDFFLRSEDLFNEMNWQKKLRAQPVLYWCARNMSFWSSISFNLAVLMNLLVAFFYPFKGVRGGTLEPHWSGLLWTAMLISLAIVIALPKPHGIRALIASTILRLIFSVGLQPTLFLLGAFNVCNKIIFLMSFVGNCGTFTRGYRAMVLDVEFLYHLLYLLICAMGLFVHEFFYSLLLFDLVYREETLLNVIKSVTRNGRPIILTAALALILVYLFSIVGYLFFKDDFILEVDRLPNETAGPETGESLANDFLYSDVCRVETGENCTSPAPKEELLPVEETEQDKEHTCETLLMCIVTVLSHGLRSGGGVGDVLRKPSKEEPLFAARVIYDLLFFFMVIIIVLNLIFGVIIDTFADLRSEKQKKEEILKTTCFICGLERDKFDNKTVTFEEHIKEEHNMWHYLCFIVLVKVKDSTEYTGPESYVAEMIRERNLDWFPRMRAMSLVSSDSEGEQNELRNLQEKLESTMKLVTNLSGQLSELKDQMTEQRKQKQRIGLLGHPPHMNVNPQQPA
T1 sequence (P41595 whole entry): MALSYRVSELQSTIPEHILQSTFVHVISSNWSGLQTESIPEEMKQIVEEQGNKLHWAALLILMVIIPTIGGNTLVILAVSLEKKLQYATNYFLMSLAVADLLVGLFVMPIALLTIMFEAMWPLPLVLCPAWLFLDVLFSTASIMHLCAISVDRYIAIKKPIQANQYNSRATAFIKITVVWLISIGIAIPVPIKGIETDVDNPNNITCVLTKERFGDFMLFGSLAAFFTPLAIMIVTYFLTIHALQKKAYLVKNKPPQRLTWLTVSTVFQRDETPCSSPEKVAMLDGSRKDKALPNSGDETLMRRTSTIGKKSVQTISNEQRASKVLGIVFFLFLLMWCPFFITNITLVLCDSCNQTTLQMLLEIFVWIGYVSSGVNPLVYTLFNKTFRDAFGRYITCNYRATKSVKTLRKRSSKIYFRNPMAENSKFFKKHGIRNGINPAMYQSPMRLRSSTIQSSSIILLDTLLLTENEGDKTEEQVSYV

total cellular protein [1]: increased
% Inhibition of Binding (5-HT1; 10 μM compound, n=2): −25%
binding (in words) (5-HT1; radioligand binding, 10 μM): No significant binding
inhibition at 10 µM (5-HT2B): 97%
inhibition at 10 µM (5-HT2C): 42%
% Inhibition of Binding (Adrenergic alpha 1): 17%
% Inhibition of Binding [4]: 4%
inhibition at 10 µM [5]: 3%
% Inhibition of Binding (Imidazoline I2, central): 15%
inhibition at 10 µM (5-HT4; 10 μM compound, n=2): 17%
binding (in words) (5-HT4; radioligand binding, 10 μM): No significant binding
inhibition at 10 µM (Adenosine A2A): 14%
Compound: Cc1c(-c2ccccc2)nc2sc3c(c2c1N)CCCC3 [Compound 18264, 3-Methyl-2-phenyl-5,6,7,8-tetrahydro-benzo[4,5]thieno[2,3-b]pyridin-4-ylamine]
stimulation of MCIP1-luciferase expression [2]: approximately two-fold
induction of myocyte hypertrophy (enlargement, sarcomere assembly) [3]: extraordinarily potent inducer of myocyte hypertrophy
ANF expression/secretion [6]: up-regulated ANF expression
